Source: patent publication US8993552B2, “Compositions and methods for treatment of leukemia” (The Regents of The University of Michigan, priority 2009, dated 2015)
Entries after “also recorded” stand apart in the source; their conditions may differ.

Key:
menin-MLL interaction [1] = target: T1, menin-MLL interaction (Homo sapiens (Human), UniProt O00255); assay: Fluorescence polarization (FP) competition assay with fluorescein-labeled MLL peptide; format: binding; settings: for in vitro activity in FP assay relative to parent Compound 1: in words;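 on all read-outs here: Read-out is fluorescence anisotropy of fluorescein-labeled MLL peptide bound to menin, inhibitors displace the peptide and lower anisotropy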
T1 sequence (O00255 whole entry): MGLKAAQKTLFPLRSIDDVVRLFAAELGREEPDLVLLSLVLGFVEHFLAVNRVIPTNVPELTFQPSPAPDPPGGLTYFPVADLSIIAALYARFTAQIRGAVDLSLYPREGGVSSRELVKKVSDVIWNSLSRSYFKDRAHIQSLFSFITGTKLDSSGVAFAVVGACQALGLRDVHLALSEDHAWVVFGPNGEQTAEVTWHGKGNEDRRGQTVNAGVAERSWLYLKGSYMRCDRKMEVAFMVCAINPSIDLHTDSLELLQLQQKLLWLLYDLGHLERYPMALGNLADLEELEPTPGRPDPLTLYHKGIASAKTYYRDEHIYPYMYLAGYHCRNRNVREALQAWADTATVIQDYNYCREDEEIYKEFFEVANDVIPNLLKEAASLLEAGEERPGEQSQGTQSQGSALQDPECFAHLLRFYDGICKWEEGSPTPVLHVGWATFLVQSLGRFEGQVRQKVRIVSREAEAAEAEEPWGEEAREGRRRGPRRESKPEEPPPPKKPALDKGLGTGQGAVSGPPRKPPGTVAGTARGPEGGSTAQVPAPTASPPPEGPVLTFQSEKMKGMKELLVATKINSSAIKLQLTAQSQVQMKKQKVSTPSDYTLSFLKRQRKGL

menin-MLL interaction [2] = target: T1, menin-MLL interaction; assay: HTRF (TR-FRET) assay, His-tagged menin and biotinylated MLL peptide; format: binding
menin = menin (Homo sapiens (Human), UniProt O00255); assay: NMR STD / competition STD binding experiments; settings: 2.5 μM menin
Sequence of menin (O00255 whole entry): as above

Hep-G2 (liver) cell line = assay: MTT viability assay, liver cell line
HK-2 (kidney) cell line = assay: MTT viability assay, kidney cell line
menin-MLL interaction [3] = target: T1, menin-MLL interaction; settings: 50 μM and 25 μM compound, vs DMSO control
THP-1 leukemia cells = assay: Differentiation of THP-1 cells, CD11b by flow cytometry; format: cell-based, human
From the text: Thienopyrimidine and benzodiazepine compounds induce differentiation of the MLL leukemia cells.

[4] = system: Hoxa9 and Meis1 expression; assay: qRT-PCR of MLL downstream targets in THP-1 cells
[5] = system: non-MLL leukemia cell lines (Kasumi-1, ME-1); assay: MTT viability assay in non-MLL leukemia cell lines; format: cell-based, human; settings: Kasumi-1 (AML1-ETO), ME-1 (CBFβ-SMMHC)
Hoxa9 promoter = assay: Luciferase reporter assay in HEK293 cells transfected with MLL-AF9
[6] = system: human leukemia cell lines with MLL translocations (MV4;11, KOPN-8, THP-1, MonoMac6); assay: MTT viability assay in MLL leukemia cell lines; format: cell-based; settings: in words
[7] = Table 3, NA = no activity, read-out: IC50 in FP assay with FLSN-MLL
[8] = Table 2, FP assay, read-out: IC50
[9] = Table 1, NA = no activity, NS = no saturation on titration curve, read-out: IC50 in FP assay with FLSN-MLL
[10] = Table 1, NA = no activity, NS = no saturation on titration curve
[11] = Table 4, NA = no activity, NS not defined in this table, read-out: IC50 in FP assay with FLSN-MLL

Compound: COc1ccc(C2CC(=O)C3=C(C2)Nc2ccccc2N(C(C)=O)C3c2cccnc2)cc1 (stereo not shown) [Compound 85]
- IC50 (menin-MLL interaction [1]; [7]): 72 µM

Compound: CC1(C)CN=C(N2CCN(c3ncnc4sc(Cc5ccccc5)cc34)CC2)S1 [Compound 71]
- IC50 (menin-MLL interaction [1]; [8]): 4.6 µM

Compound: c1ccc(-c2cc3c(N4CCN(c5nccs5)CC4)ncnc3s2)cc1 [Compound 21]
- IC50 (menin-MLL interaction [1]; [9]): 50 µM

Compound: CC(C)c1cc2c(N3CCN(c4nnc(C(F)(F)F)s4)CC3)ncnc2s1 [Compound 68]
- IC50 (menin-MLL interaction [1]; [8]): 2.4 µM

Compound: c1cn(CCCNc2ncnc3sc4c(c23)CCCCC4)cn1 [Compound 3]
- IC50 (menin-MLL interaction [1]; [9]): 83 µM
- IC50 (menin-MLL interaction [2]; Table 1): 35 µM

Compound: CC(C)c1cc2c(N3CCCN(C4=NCC(C)(C)S4)CC3)ncnc2s1 [Compound 75]
- IC50 (menin-MLL interaction [1]; [8]): 32 µM

Compound: CCc1cc2c(N3CCN(CC(=O)N4CCOCC4)CC3)ncnc2s1 [Compound 61]
- IC50 (menin-MLL interaction [1]; [8]): 20 µM

Compound: CC1(C)CC(=O)C2=C(C1)Nc1ccccc1NC2c1ccc2c(c1)OCO2 (stereo not shown) [Compound 34]
- IC50 (menin-MLL interaction [1]; [7]): 12 µM

Compound: NC(=O)Cc1nc(-c2ccc(Br)cc2)cs1 [Compound 49]
- D in FP assay (menin-MLL interaction [1]; Table 4, at 1.0 mM): 10%

Compound: c1ccc(CN2CCC(Nc3ncnc4sc5c(c34)CCC5)CC2)cc1 [Compound 78]
- IC50 (menin-MLL interaction [1]; [8]): 12 µM

Compound: Cc1cc2c(N3CCN(c4ccccc4)CC3)ncnc2s1 [Compound 29]
- IC50 in FP assay with FLSN-MLL (menin-MLL interaction [1]; [10]): NA up to 250 μM

Compound: Cc1nn(-c2ccccc2)nc1C(N)=O [Compound 44]
- binding to menin by NMR (STD, competition STD with MLL peptide) (menin): Binding to menin was confirmed
- IC50 (menin-MLL interaction [1]; [11]): 380 µM

Compound: NC(=O)Cc1nc(-c2ccc(F)cc2)cs1 [Compound 43]
- binding to menin by NMR (STD, competition STD with MLL peptide) (menin): Binding to menin was confirmed
- IC50 (menin-MLL interaction [1]; [11]): 230 µM
- IC50 (menin-MLL interaction [2]; Table 4): 200 µM

Compound: OCc1ccc(-c2ccncc2)cc1 [Compound 45]
- binding to menin by NMR (STD, competition STD with MLL peptide) (menin): Binding to menin was confirmed
- IC50 (menin-MLL interaction [1]; [11]): 510 µM

Compound: CC(=O)N1c2ccccc2NC2=C(C(=O)CC(c3ccc(C(C)(C)C)cc3)C2)C1c1ccncc1 (stereo not shown) [Compound 33]
- toxicity in viability assay (Hep-G2 (liver) cell line): no substantial signs of toxicity
- binding to menin by NMR (STD, competition STD with MLL peptide) (menin): specific binding
- IC50 (menin-MLL interaction [1]; [7]): 29 µM
- IC50 (menin-MLL interaction [2]; Table 3): 28 µM
- toxicity in viability assay (HK-2 (kidney) cell line): no substantial signs of toxicity

Compound: COc1ccc(C2CC(=O)C3=C(C2)Nc2ccccc2NC3c2ccccc2C)cc1OC (stereo not shown) [Compound 38]
- IC50 (menin-MLL interaction [1]; [7]): 115 µM

Compound: CC(C)c1cc2c(N3CCN(C4=NCC(C)(C)S4)CC3)ncnc2s1 [Compound 67]
- IC50 (menin-MLL interaction [1]; [8]): 0.65 µM
- in vitro activity in FP assay relative to parent Compound 1 (menin-MLL interaction [1]): more potent activity
- inhibition of the menin-MLL interaction in cells (co-IP) (menin-MLL interaction [3]): effectively inhibit
- expression of CD11b on the cell surface (THP-1 leukemia cells): increased expression of CD11b

Compound: CCc1cc2c(N3CCN(C(=O)c4ccco4)CC3)ncnc2s1 [Compound 63]
- expression level of Hoxa9 and Meis1 [4]: Downregulation
- IC50 (menin-MLL interaction [1]; [8]): 12 µM
- effect on growth of non-MLL leukemia cell lines [5]: No or very limited effect

Compound: CCc1cc2c(NCC3CCN(Cc4cccc(C)c4)CC3)ncnc2s1 [Compound 81]
- IC50 (menin-MLL interaction [1]; [8]): 40 µM

Compound: Cc1csc(N2CCN(c3nc(CN4CCOCC4)nc4sc5c(c34)CCC(C)C5)CC2)n1 (stereo not shown) [Compound 14]
- IC50 (menin-MLL interaction [1]; [9]): 250 µM

Compound: COC(=O)Cc1nc(C2CCCCC2)cs1 [Compound 51]
- IC50 (menin-MLL interaction [1]; [11]): 1900 µM

Compound: CCc1cc2c(N3CCN(C)CC3)ncnc2s1 [Compound 7]
- IC50 (menin-MLL interaction [1]): 170 µM

Compound: CCc1cc2c(N3CCN(Cc4ccccc4)CC3)ncnc2s1 [Compound 2]
- IC50 (menin-MLL interaction [1]; [9]): 42 µM
- IC50 (menin-MLL interaction [2]; Table 1): 85 µM

Compound: O=C1CC(c2ccc3c(c2)OCO3)CC2=C1C(c1ccncc1)Nc1ccccc1N2 (stereo not shown) [Compound 39]
- transactivation of the Hoxa9 promoter (Hoxa9 promoter): No effect
- IC50 (menin-MLL interaction [1]; [7]): 230 µM
- growth inhibition of MLL leukemia cells [6]: no effect; also recorded: no growth inhibition

Compound: CCN(CC)Cc1nc(N2CCN(c3nccs3)CC2)c2c(C)c(C)sc2n1 [Compound 17]
- IC50 in FP assay with FLSN-MLL (menin-MLL interaction [1]; [10]): NA up to 250 uM

Compound: CCc1cc2c(N3CCN(c4nnc(C(F)(F)F)s4)CC3)ncnc2s1.Cl [Compound 66]
- IC50 (menin-MLL interaction [1]; [8]): 1.1 µM
- in vitro activity in FP assay relative to parent Compound 1 (menin-MLL interaction [1]): more potent activity

Compound: CCc1cc2c(NCCN(CC)Cc3ccccc3)ncnc2s1 [Compound 83]
- IC50 (menin-MLL interaction [1]; [8]): 27 µM

Compound: Nc1cccc(-c2cccnc2)c1 [Compound 42]
- binding to menin by NMR (STD, competition STD with MLL peptide) (menin): Binding to menin was confirmed
- IC50 (menin-MLL interaction [1]; FP competition, read-out: IC50 for inhibition of the menin-MLL interaction): 50 µM
- IC50 (menin-MLL interaction [1]; [11]): 50 µM

Compound: Fc1ccc(-c2csc3ncnc(N4CCN(c5nccs5)CC4)c23)cc1 [Compound 20]
- IC50 (menin-MLL interaction [1]; [9]): 125 µM

Compound: Cc1csc(N2CCN(c3nc(C)nc4sc5c(c34)CCCC5)CC2)n1 [Compound 15]
- IC50 (menin-MLL interaction [1]; [9]): 49 µM

Compound: CC(=O)N1c2ccccc2NC2=C(C(=O)CC(c3ccc(C)cc3)C2)C1c1cccnc1 (stereo not shown) [Compound 84]
- IC50 (menin-MLL interaction [1]; [7]): 100 µM

Compound: CCc1cc2c(N3CCN(C(=O)c4ccccc4)CC3)ncnc2s1 [Compound 62]
- IC50 (menin-MLL interaction [1]; [8]): 10 µM
